Test results from patent publication US4851414A, “Anti-dementia agent” (Kyowa Hakko Kagyo Co., Ltd., priority 1987, dated 1989).

Legend:
[1] = Activity on Electroconvulsive Shock-induced Amnesia (step-through passive avoidance, light-and-dark box); assay type: in vivo, mouse (dd strain, male); conditions: for reaction latent time: Tables 2-2, 2-3 and 2-4, oral
Description: The antiamnestic activity was measured by using the light-and-dark box method. Symbols of the test compounds correspond to said compounds (Table 1).
As the test animals, 14 to 15 dd strain male mice (body weight: 23-28 g) were used for each group. As the experimental device, a step-through type passive avoidance training box composed of a light room and a dark room (light room: 130×90×90 mm; dark room 180×90×90 mm) was used.
In the acquisition trial where learning takes place, mice put in the light room move to the dark room. Each time the mice entered the dark room, electric stimulation of 0.25 mA was given to four limbs of each mouse for 2 seconds from grids on the floor.
Amnesia-inducing treatment was performed by electroconvulsive shock (2,000 V, 25 mA, 0.2 seconds) immediately after completion of the acquisition trial. After 24 hours, the test trial was conducted to measure the length of time before the mice entered the dark room. This time period, termed the reaction latent time, was recorded. A reaction latent time longer than 600 seconds was recorded as 600 seconds.
A test compound was suspended in 0.3% sodium carboxymethyl cellulose (hereinafter referred to as "CMC"). That suspension and a control of 0.3% CMC without any test compound were respectively administered to the mice 60 minutes prior to each test trial.
The effect was evaluated by Student-t test to determine whether there was a significant difference in reaction latent time between the amnesia control group and the group administered with the test compound in the passive avoidance test trial.

Acute Toxicity, rats = conditions: in vivo; oral, rat (male)
Description: (§1) Acute toxicity test was carried out by orally administering Compound (I) used in the present invention to mice (male) and rats (male).

Acute Toxicity, mice = conditions: in vivo; oral, mouse (male)
Description: as §1

[2] = Activity on Scopolamine-induced Amnesia (step-through passive avoidance); assay type: in vivo, rat (Wistar strain, male); conditions: for Number of Rats that Reached Standard Point / Number of Rats Tested: standard point 600 seconds
Excerpt: As the experimental device, a step-through type passive avoidance training box composed of a light room and a dark room (light room: 400×400×400 mm; dark room 200×150×200 mm) was used. In the acquisition trial where learning is made, rats put in the light room move to the dark room. Each time the rats entered the dark room, electric stimulation of 2 mA was given to four limbs of each rat for 3 seconds from grids on the floor.

[3] = Activity on Amnesia due to Damage of Basal Forebrain (kainic acid lesion, passive avoidance); assay type: in vivo, rat (Wistar strain, male); conditions: for Number of Rats that Reached Standard Point / Number of Rats Tested: standard point 600 seconds
Description: As the test animals, 13 to 39 Wistar strain male rats (body weight: 250-300 g) were used for each group. Amnesia-inducing treatment was effected by damaging the basal forebrain through injection of 0.2 μg/μl kainic acid at the basal forebrain from both sides under anesthesia with pentobarbital-Na.
After the recovery period of about 10 days following the operation, the trial for acquiring learning (training) was performed in a similar manner using the same experimental device as in Experiment 2. After 24 hours, the test trial was carried out.
Measurement of the latent time was carried out in a similar manner as in Experiment 1. Test Compound B and idebenone were suspended in 0.3% CMC, and the suspension was administered twice 60 minutes prior to the training and 60 minutes prior to the test.
Alternatively, the suspension was administered for 9 consecutive days after the recovery period. In this case, Compound B was orally administered and idebenone was intraperiotoneally administered; and the training was conducted on day 8 and the test trial was conducted on day 9. […]

[4] = 2.5 mg/kg, administered for 9 days, oral
[5] = 10 mg/kg, administered for 9 days, oral
[6] = idebenone intraperitoneal, imipramine oral
[7] = 2.5 mg/kg, administered for 9 days, intraperitoneal
[8] = 10 mg/kg, administered for 9 days, intraperitoneal

## CN(C)CCC=C1c2ccccc2CCc2ccccc21 [Amitriptyline, amitriptyline, reference compound]
[1]; mouse, in vivo, po
  ataxis in motor coordination, order of intensity: amitriptyline>desipramine>imipramine

## CC(=O)Nc1ccc(Cc2ccccn2)c([N+](=O)[O-])c1 [Compound A, α-(p-Acetylamino-o-nitrobenzyl)pyridine]
Acute Toxicity, rats
  LD50: > 200 mg/kg
[1]
  reaction latent time: prolonged
Acute Toxicity, mice
  LD50: 660 mg/kg

## CCCC(=O)Nc1ccc(Cc2ccccn2)c([N+](=O)[O-])c1 [Compound B, α-(p-Butyrylamino-o-nitrobenzyl)pyridine]
[2]; 2.5 mg/kg, oral
  Test Trial Mean Reaction Latent Time: 94.3 ± 30.3 s
  Number of Rats that Reached Standard Point / Number of Rats Tested: 1/20
[2]; 5 mg/kg, oral
  Test Trial Mean Reaction Latent Time: 148.9 ± 54.3 s
  Number of Rats that Reached Standard Point / Number of Rats Tested: 3/17
[2]; 10 mg/kg, oral
  Test Trial Mean Reaction Latent Time: 201.2 ± 55.5 s
  Number of Rats that Reached Standard Point / Number of Rats Tested: 4/20
[2]; 20 mg/kg, oral
  Test Trial Mean Reaction Latent Time: 172.4 ± 52.6 s
  Number of Rats that Reached Standard Point / Number of Rats Tested: 2/17
[2]; 40 mg/kg, oral
  Test Trial Mean Reaction Latent Time: 171.2 ± 52.5 s
  Number of Rats that Reached Standard Point / Number of Rats Tested: 4/20
[2]; oral, dose of 5 to 40 mg/kg
  antiamnestic activity: showed an antiamnestic activity
Acute Toxicity, rats
  LD50: > 850 mg/kg
[1]; doses of 10, 40, 80 and 160 mg/kg, oral
  reaction latent time compared with the amnestic control group: significantly prolonged
[3]; [4]
  Test Trial Mean Reaction Latent Time: 243.2 ± 73.7 s
  Number of Rats that Reached Standard Point / Number of Rats Tested: 4/13
[3]; 2.5 mg/kg, administered twice
  Test Trial Mean Reaction Latent Time: 121.8 ± 36.5 s
  Number of Rats that Reached Standard Point / Number of Rats Tested: 1/19
[3]; 5 mg/kg, administered twice
  Test Trial Mean Reaction Latent Time: 215.5 ± 60.0 s
  Number of Rats that Reached Standard Point / Number of Rats Tested: 5/19
[3]; [5]
  Test Trial Mean Reaction Latent Time: 259.0 ± 78.5 s
  Number of Rats that Reached Standard Point / Number of Rats Tested: 5/13
[3]; 10 mg/kg, administered twice
  Test Trial Mean Reaction Latent Time: 191.2 ± 57.7 s
  Number of Rats that Reached Standard Point / Number of Rats Tested: 3/18
[3]; 20 mg/kg, administered twice
  Test Trial Mean Reaction Latent Time: 209.2 ± 60.2 s
  Number of Rats that Reached Standard Point / Number of Rats Tested: 4/18
[3]; 40 mg/kg, administered twice
  Test Trial Mean Reaction Latent Time: 163.0 ± 51.5 s
  Number of Rats that Reached Standard Point / Number of Rats Tested: 2/18
[3]; 9 consecutive days, 10 mg/kg, oral
  improving activity: significant (P<0.05) improving activity
[3]; administered twice, 2.5 mg/kg or more
  activity of alleviating learning disturbance: showed an activity of alleviating learning disturbance
[3]; rat, in vivo
  improving activity in the learning-disturbed animal model: apparent improving activity
Acute Toxicity, mice
  LD50: 1530 mg/kg

## CCCCC(=O)Nc1ccc(Cc2ccccn2)c([N+](=O)[O-])c1 [Compound C, α-(p-Valerylamino-o-nitrobenzyl)pyridine]
[1]
  reaction latent time: prolonged
Acute Toxicity, mice
  LD50: > 300 mg/kg

## CCCCCC(=O)Nc1ccc(Cc2ccccn2)c([N+](=O)[O-])c1 [Compound D, α-(p-Hexanoylamino-o-nitrobenzyl)pyridine]
Acute Toxicity, rats
  LD50: > 100 mg/kg
[1]
  reaction latent time: prolonged
Acute Toxicity, mice
  LD50: > 1000 mg/kg

## CCCCCCCC(=O)Nc1ccc(Cc2ccccn2)c([N+](=O)[O-])c1 [Compound E, α-(p-Octanoylamino-o-nitrobenzyl)pyridine]
Acute Toxicity, rats
  LD50: > 100 mg/kg
Acute Toxicity, mice
  LD50: > 1000 mg/kg

## CCCCCCCCCC(=O)Nc1ccc(Cc2ccccn2)c([N+](=O)[O-])c1 [Compound F, α-(p-Decanoylamino-o-nitrobenzyl)pyridine]
Acute Toxicity, rats
  LD50: > 100 mg/kg
Acute Toxicity, mice
  LD50: > 1000 mg/kg

## CCCCCCCCCCCCCC(=O)Nc1ccc(Cc2ccccn2)c([N+](=O)[O-])c1 [Compound G, α-(p-Myristylamino-o-nitrobenzyl)pyridine]
Acute Toxicity, rats
  LD50: > 100 mg/kg
[1]
  reaction latent time: prolonged
Acute Toxicity, mice
  LD50: > 1000 mg/kg

## CNCCCN1c2ccccc2CCc2ccccc21 [Desipramine, desipramine, reference compound]
[1]; Table 2-6, oral
  ataxis in motor coordination, order of intensity: amitriptyline>desipramine>imipramine

## COC1=C(OC)C(=O)C(CCCCCCCCCCO)=C(C)C1=O [Idebenone, idebenone, reference compound]
[2]; 2.5 mg/kg, intraperitoneal
  Test Trial Mean Reaction Latent Time: 58.4 ± 19.7 s
  Number of Rats that Reached Standard Point / Number of Rats Tested: 0/10
[2]; 5 mg/kg, intraperitoneal
  Test Trial Mean Reaction Latent Time: 110.6 ± 30.2 s
  Number of Rats that Reached Standard Point / Number of Rats Tested: 0/10
[2]; 10 mg/kg, intraperitoneal
  Test Trial Mean Reaction Latent Time: 148.8 ± 60.2 s
  Number of Rats that Reached Standard Point / Number of Rats Tested: 0/10
[2]; [6]
  antiamnestic activity: showed no antiamnestic activity
[3]; [7]
  Test Trial Mean Reaction Latent Time: 382.8 ± 80.2 s
  Number of Rats that Reached Standard Point / Number of Rats Tested: 7/13
[3]; [8]
  Test Trial Mean Reaction Latent Time: 178.2 ± 68.2 s
  Number of Rats that Reached Standard Point / Number of Rats Tested: 3/13
[3]; 10 mg/kg, administered twice
  Test Trial Mean Reaction Latent Time: 52.0 ± 22.1 s
  Number of Rats that Reached Standard Point / Number of Rats Tested: 0/14
[3]; 20 mg/kg, administered twice
  Test Trial Mean Reaction Latent Time: 15.2 ± 3.4 s
  Number of Rats that Reached Standard Point / Number of Rats Tested: 0/14
[3]; 40 mg/kg, administered twice
  Test Trial Mean Reaction Latent Time: 27.7 ± 8.9 s
  Number of Rats that Reached Standard Point / Number of Rats Tested: 0/14
[3]; 9 consecutive days, 2.5 mg/kg, intraperitoneal
  improving effect: apparent improving effect
[3]; administered twice, 10 to 40 mg/kg
  improving effect: showed no improving effect

## CN(C)CCCN1c2ccccc2CCc2ccccc21 [Imipramine, imipramine]
[2]; 20 mg/kg, oral
  Test Trial Mean Reaction Latent Time: 110.4 ± 44.3 s
  Number of Rats that Reached Standard Point / Number of Rats Tested: 1/13
[2]; 40 mg/kg, oral
  Test Trial Mean Reaction Latent Time: 186.6 ± 54.0 s
  Number of Rats that Reached Standard Point / Number of Rats Tested: 1/13
[2]; [6]
  antiamnestic activity: showed no antiamnestic activity
[1]; Table 2-6, oral
  ataxis in motor coordination, order of intensity: amitriptyline>desipramine>imipramine
